{"source": "patent US20020082273A1", "about": "“Agents for use in the treatment of alzheimer's disease” (priority 1998, published 2002)", "key": {"[1]": {"conditions": "Table 1; K=[ML]/[M][L]; cited from earlier work"}, "[2]": {"system": "Aβ1-40 or Aβ1-42 SDS-resistant polymers", "assay": "Dissolution of in vitro Cu^2+-induced SDS-resistant Aβ polymers", "type": "biochemical, human", "conditions": "polymers generated at pH 7.4"}, "[3]": {"conditions": "Table 1; K=[ML]/[M][L]; cited from earlier work", "remark": "listed apart in the source"}, "[4]": {"conditions": "Table 1; K=[ML]/[M][L]; cited from earlier work", "remark": "listed apart in the source"}, "[5]": {"conditions": "Table 1; K=[ML]/[M][L]; cited from earlier work", "remark": "listed apart in the source"}, "[6]": {"conditions": "Table 1; K=[ML]/[M][L]; cited from earlier work", "remark": "listed apart in the source"}, "[7]": {"conditions": "Table 1; K=[ML]/[M][L]; cited from earlier work", "remark": "listed apart in the source"}, "[8]": {"conditions": "Table 1; K=[ML]/[M][L]; cited from earlier work", "remark": "listed apart in the source"}}, "data": [{"smiles": "O=C(O)CN(CCN(CC(=O)O)CC(=O)O)CC(=O)O", "note": "[EDTA, ethylenediaminetetra acetic acid]", "values": [{"measurement": "LogK, Cu", "setting": "[1]", "value": 18.8}, {"measurement": "effect of chelators on amount of SDS-resistant polymers", "setting": "[2]", "value": "less effective in destabilizing the polymers"}, {"measurement": "LogK, Ca", "setting": "[3]", "value": 10.7}, {"measurement": "LogK, Fe", "setting": "[4]", "value": 14.3}, {"measurement": "LogK, Mg", "setting": "[5]", "value": 8.9}, {"measurement": "LogK, Zn", "setting": "[6]", "value": 16.5}, {"measurement": "LogK, Al", "setting": "[7]", "value": 16.5}, {"measurement": "LogK, Co", "setting": "[8]", "value": 16.5}]}]}
